Measurements: the CheMixHub viscosity set

Experiment: xn = mol fraction of the nth substance listed

CCc1ccccc1 + CN(C)C=O
viscosity [mPa·s], 101.33 kPa
Details	303.15 K	313.15 K
x2 = 0.0997	0.597	0.542
x2 = 0.1996	–	0.556
x2 = 0.1997	0.614	–
x2 = 0.2997	–	0.568
x2 = 0.2999	0.631	–
x2 = 0.4154	0.652	0.584
x2 = 0.5109	0.667	0.597
x2 = 0.584	0.679	0.608
x2 = 0.6991	0.696	0.625
x2 = 0.8014	0.709	0.641
x2 = 0.8872	0.719	0.652

Clc1ccccc1 + COc1ccccc1
Details	viscosity [mPa·s]
293.15 K, 101.33 kPa, x2 = 0.0976	0.8705
293.15 K, 101.33 kPa, x2 = 0.1922	0.8967
293.15 K, 101.33 kPa, x2 = 0.2893	0.9253
293.15 K, 101.33 kPa, x2 = 0.3873	0.9512
293.15 K, 101.33 kPa, x2 = 0.493	0.9898
293.15 K, 101.33 kPa, x2 = 0.5987	0.967
293.15 K, 101.33 kPa, x2 = 0.7059	1.007
293.15 K, 101.33 kPa, x2 = 0.7916	1.072
293.15 K, 101.33 kPa, x2 = 0.905	1.107
298.15 K, 101 kPa, x2 = 0.0994	0.7921
298.15 K, 101 kPa, x2 = 0.2	0.8143
298.15 K, 101 kPa, x2 = 0.2957	0.8336
298.15 K, 101 kPa, x2 = 0.3982	0.8576
298.15 K, 101 kPa, x2 = 0.5028	0.88
298.15 K, 101 kPa, x2 = 0.6002	0.9024
298.15 K, 101 kPa, x2 = 0.7006	0.9275
298.15 K, 101 kPa, x2 = 0.7995	0.9474
298.15 K, 101 kPa, x2 = 0.8997	0.9779
298.15 K, 101.33 kPa, x2 = 0.0976	0.8217
298.15 K, 101.33 kPa, x2 = 0.1922	0.8474
298.15 K, 101.33 kPa, x2 = 0.2893	0.8642
298.15 K, 101.33 kPa, x2 = 0.3873	0.8824
298.15 K, 101.33 kPa, x2 = 0.493	0.9356
298.15 K, 101.33 kPa, x2 = 0.5987	0.9051
298.15 K, 101.33 kPa, x2 = 0.7059	0.9242
298.15 K, 101.33 kPa, x2 = 0.7916	0.9965
298.15 K, 101.33 kPa, x2 = 0.905	1.037
303.15 K, 101 kPa, x2 = 0.0864	0.7392
303.15 K, 101 kPa, x2 = 0.0994	0.7495
303.15 K, 101 kPa, x2 = 0.1933	0.7667
303.15 K, 101 kPa, x2 = 0.2	0.7657
303.15 K, 101 kPa, x2 = 0.2875	0.79
303.15 K, 101 kPa, x2 = 0.2957	0.785
303.15 K, 101 kPa, x2 = 0.3805	0.8112
303.15 K, 101 kPa, x2 = 0.3982	0.8026
303.15 K, 101 kPa, x2 = 0.4904	0.8348
303.15 K, 101 kPa, x2 = 0.5028	0.8232
303.15 K, 101 kPa, x2 = 0.5826	0.8538
303.15 K, 101 kPa, x2 = 0.6002	0.8438
303.15 K, 101 kPa, x2 = 0.6914	0.8755
303.15 K, 101 kPa, x2 = 0.7006	0.8635
303.15 K, 101 kPa, x2 = 0.779	0.8922
303.15 K, 101 kPa, x2 = 0.7995	0.8808
303.15 K, 101 kPa, x2 = 0.8905	0.9132
303.15 K, 101 kPa, x2 = 0.8997	0.9091
308.15 K, 101 kPa, x2 = 0.0994	0.7047
308.15 K, 101 kPa, x2 = 0.2	0.7212
308.15 K, 101 kPa, x2 = 0.2957	0.7354
308.15 K, 101 kPa, x2 = 0.3982	0.7535
308.15 K, 101 kPa, x2 = 0.5028	0.7693
308.15 K, 101 kPa, x2 = 0.6002	0.7866
308.15 K, 101 kPa, x2 = 0.7006	0.8038
308.15 K, 101 kPa, x2 = 0.7995	0.8201
308.15 K, 101 kPa, x2 = 0.8997	0.8444
313.15 K, 101 kPa, x2 = 0.0994	0.6642
313.15 K, 101 kPa, x2 = 0.2	0.6768
313.15 K, 101 kPa, x2 = 0.2957	0.6921
313.15 K, 101 kPa, x2 = 0.3982	0.7064
313.15 K, 101 kPa, x2 = 0.5028	0.7227
313.15 K, 101 kPa, x2 = 0.6002	0.7366
313.15 K, 101 kPa, x2 = 0.7006	0.7511
313.15 K, 101 kPa, x2 = 0.7995	0.7649
313.15 K, 101 kPa, x2 = 0.8997	0.7855

C[NH+](C)CCO.O=C([O-])CCCC(=O)O + O
101 kPa, x2 = 0.89
Details	viscosity [mPa·s]
298 K	19.3
313 K	11.8

Clc1ccccc1 + C=C(C)C(=O)OC
303.15 K, 101 kPa
Details	viscosity [mPa·s]
x2 = 0.099	0.6943
x2 = 0.1971	0.6738
x2 = 0.3987	0.6345
x2 = 0.4982	0.6147
x2 = 0.6984	0.5743
x2 = 0.7989	0.5538
x2 = 0.8987	0.5349

Clc1cccc2ccccc12 + Cc1cc(C)cc(C)c1
viscosity [mPa·s], 101.33 kPa
Details	x1 = 0.0983	x1 = 0.2041	x1 = 0.2992	x1 = 0.3988	x1 = 0.4984	x1 = 0.6008	x1 = 0.6999	x1 = 0.8017	x1 = 0.9016
298.15 K	0.688	0.807	0.929	1.086	1.251	1.476	1.706	2.019	2.376
303.15 K	0.644	0.753	0.863	1.003	1.15	1.346	1.551	1.826	2.138
308.15 K	0.605	0.703	0.803	0.927	1.062	1.239	1.419	1.661	1.935

CCCCCCCCCCCCCCCCCCCCCC + CCCCCCC
viscosity [mPa·s], 101.3 kPa
Details	x1 = 0.2	x1 = 0.4	x1 = 0.479	x1 = 0.596	x1 = 0.798
303.2 K	0.9761	–	–	–	–
313.2 K	0.8502	1.621	2.137	–	–
323.1 K	0.7493	1.39	1.826	2.449	3.197

C=CC(=O)OCC + CCCCCCCO
viscosity [mPa·s], 101.3 kPa
Details	x1 = 0.0736	x1 = 0.1906	x1 = 0.2456	x1 = 0.3599	x1 = 0.4687	x1 = 0.6637	x1 = 0.7551	x1 = 0.8399	x1 = 0.9223	x1 = 0.9662
298.15 K	4.585	3.017	2.513	1.864	1.399	0.923	0.778	0.655	0.576	0.534
308.15 K	3.306	2.411	2.01	1.531	1.18	0.778	0.658	0.564	0.505	0.471

CCCC(C)C + COC(C)(C)C
298.15 K, 101.33 kPa
Details	viscosity [mPa·s]
x2 = 0.0969	0.2794
x2 = 0.2016	0.2825
x2 = 0.3021	0.2858
x2 = 0.4006	0.2902
x2 = 0.5007	0.2956
x2 = 0.5985	0.3014
x2 = 0.6965	0.3079
x2 = 0.7978	0.3154
x2 = 0.8845	0.3228

Clc1cccc2ccccc12 + Cc1ccccc1
viscosity [mPa·s], 101.33 kPa
Details	x1 = 0.0995	x1 = 0.1995	x1 = 0.3037	x1 = 0.3973	x1 = 0.4962	x1 = 0.597	x1 = 0.6945	x1 = 0.7972	x1 = 0.8918
298.15 K	0.596	0.711	0.838	0.979	1.16	1.357	1.614	1.941	2.321
303.15 K	0.561	0.665	0.788	0.91	1.074	1.249	1.484	1.764	2.091
308.15 K	0.529	0.626	0.727	0.849	0.995	1.153	1.361	1.616	1.88

COC(C)(C)C + CCCCCCC
303.15 K, 101 kPa
Details	viscosity [mPa·s]
x1 = 0.1976	0.373
x1 = 0.2745	0.369
x1 = 0.3423	0.364
x1 = 0.4536	0.359
x1 = 0.5656	0.356
x1 = 0.6441	0.353
x1 = 0.7685	0.35
x1 = 0.8606	0.349

OCCCCCO + CN(C)C=O
308.15 K, 101 kPa
Details	viscosity [mPa·s]
x1 = 0.025	0.759
x1 = 0.0483	0.826
x1 = 0.1005	1.025
x1 = 0.1877	1.446
x1 = 0.2971	2.284
x1 = 0.388	3.676
x1 = 0.4882	5.774
x1 = 0.586	9.073
x1 = 0.6875	14.59
x1 = 0.7802	22.71
x1 = 0.9446	49.91
x1 = 0.9714	56.42

CCCCn1cc[n+](C)c1.F[P-](F)(F)(F)(F)F + CC#N
298.15 K, 101 kPa
Details	viscosity [mPa·s]
x2 = 0.1938	92.9
x2 = 0.5896	8.84

Clc1cccc2ccccc12 + COc1ccccc1
viscosity [mPa·s], 101.33 kPa
Details	x1 = 0.0985	x1 = 0.1969	x1 = 0.2977	x1 = 0.3974	x1 = 0.4997	x1 = 0.5959	x1 = 0.6962	x1 = 0.7827	x1 = 0.8985
298.15 K	1.025	1.116	1.262	1.409	1.568	1.72	1.896	2.096	2.425
303.15 K	0.946	1.045	1.159	1.291	1.43	1.566	1.724	1.891	2.18
308.15 K	0.878	0.966	1.069	1.185	1.312	1.431	1.57	1.717	1.973
